Consider 28 molecules from PubChem BioAssay (NCI).

Assay in all cases: NCI-60 cell line screen, 48 h
In assay [1] the test system is SF-295 CNS.
Assay [2] relates to HOP-92 NSCLC.
Assay [3] deals with SK-MEL-5 melanoma.
For assay [4], the system named is MDA-MB-231 breast.
Assay [5] concerns SNB-75 CNS.
The test system of assay [6] is SN12C renal.
The test system of assay [7] is RXF 393 renal.
The subject of assay [8] is HCC-2998 colon.
The test system of assay [9] is HOP-62 NSCLC.
The subject of assay [10] is LOX IMVI melanoma.
The subject of assay [11] is MDA-N.

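96-well plates; 48 h exposure; 5 concentrations. Endpoints by linear interpolation between flanking doses. Not reached: highest tested concentration assigned. Here, GI50 denotes the concentration required for 50% inhibition of growth. TGI: concentration producing complete growth inhibition.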 Where a SMILES comes first, the peptide text is derived from it. Bridges are numbered along the chain shown (N, C = ends). Roman numbers before positions name the chains, in order. [ ]: non-standard residue; d: D form. The star is where a group is joined. Heptadecanoyl = CCCCCCCCCCCCCCCCC(=O)*; Phg = N[CH](C(=O)O)c1ccccc1

Consider `CCCCCCCCCCCCCCCCC(=O)N1CCCC1C(=O)NCC(=O)NC(C(=O)N1CCCC1C(=O)NC(CO)C(=O)NC(Cc1ccc(O)cc1)C(=O)NC(CCCCNC(=O)C1CCCN1C(=O)C(CCCCN)NC(=O)C(CCCCN)NC(=O)C(CCCCN)NC(=O)C(CCCNC(=N)N)NC(=O)C(CCCCN)NC(=O)C(N)C(C)C)C(=O)NC(CC(C)C)C(=O)NC(CCCNC(=N)N)C(=O)N1CCCC1C(=O)NCC(N)=O)c1ccccc1` (configuration not stated) (I: Heptadecanoyl-PG[Phg]PSYKLRPG-NH2 / II: H-VKRKKKP; amide I:7-II:C; configuration not given here), for which the GI50 in [1] is 25 µM; in assay [2], 30.4 µM; in [3], 31.3 µM; in assay [4], 17.7 µM; in assay [5] it was 54.2 µM; in assay [6], 12 µM. In addition, the GI50 in [7] is 36.8 µM; in assay [8] it was 4.36 µM; in assay [9], 32.3 µM. The TGI in assay [1] is 80.1 µM; in assay [2], 83 µM; in [3], over 100 µM; in [4] it was 36.1 µM; in [5] it was over 100 µM; in assay [6], 27.7 µM. In addition, the TGI is over 100 µM in assay [7], 29.9 µM in assay [8] and over 100 µM in [9].
Consider `C/C(=C\c1ccc2c(c1)OCO2)[N+](=O)[O-]`, for which the TGI was 6.27 µM in [1]; 5.53 µM in assay [2]; 3.93 µM in assay [3]; over 100 µM in assay [4]; 88.2 µM in assay [5]; 15.9 µM in [6]. Moreover, the TGI was 7.34 µM in [8] and over 100 µM in assay [9].
As to `COc1ccc(C2Oc3c(cccc3OC)C=C2[N+](=O)[O-])cc1` (configuration not stated), the TGI in assay [1] was determined as 16.3 µM; in [3], 2.93 µM; in [10], 2.81 µM; in [4] it was 13.6 µM; in [11], 13.1 µM; in assay [6], 5.66 µM. For the same molecule, the values for the TGI in assay [7] and in assay [9] were 2.7 µM and 5.8 µM, respectively.
On to `O=C1c2ccc3ccccc3c2CCC1N1CCCCC1` (configuration not stated), for which the TGI was 37.9 µM in assay [1]; 32.2 µM in assay [2]; 30.7 µM in assay [3]; 33.7 µM in assay [10]; 30.6 µM in assay [4]; 34.3 µM in assay [5]. Further, the TGI in assay [6] turned out to be 29 µM; in assay [7], 46.5 µM; in [9] it was 34 µM.
For `CC1(C)CC[C@]2(C(=O)O)CC[C@]3(C)C(=CC[C@@H]4[C@@]5(C)CC[C@@H]6OC(C)(C)OC[C@@]6(C)[C@@H]5CC[C@]43C)[C@H]2C1`, the TGI is 27.6 µM in [1]; 20.7 µM in assay [10]; 12.9 µM in assay [4]; 27.7 µM in [5]; 27 µM in assay [11]; 13 µM in assay [6]. The TGI came out at 27.5 µM in assay [8] and 22.9 µM in assay [9].
As to `N.N.N.N.O=S(=O)([O-])[O-].[Co+3].[OH3+].[OH3+]`, the TGI in assay [1], in assay [2], in assay [3], in assay [10], in [5] and in assay [6] was over 100 µM throughout. The TGI in assay [9] was over 100 µM.
`COC(=O)c1cc(/C=C2\Cc3cc4c(cc3C2=O)CCC4)cc2c1CCC2`: the TGI in assay [1], in assay [10], in [4], in assay [5], in [11] and in [6] was over 100 µM in each case. Further, the TGI in assay [8] and in [9] was over 100 µM each time.
Regarding `O=C1CCC2(c3ccc(F)cc3)Nc3ncncc3N12` (configuration not stated), the TGI in assay [1], in assay [2], in [10], in assay [5], in assay [11] and in assay [6] was over 10 µM each time. This molecule yielded a TGI in [8] of over 10 µM.
With `Cc1cc(-c2ccc(Cl)cc2)c(C#N)c(=S)n1C1OC(CO)C(O)C(O)C1O` (configuration not stated), the TGI in [1] is over 100 µM; in assay [3], over 100 µM; in assay [10], over 100 µM; in assay [4] it was over 100 µM; in assay [5], 78.7 µM; in assay [11], over 100 µM. The TGI in assay [6], in [7], in assay [8] and in [9] was over 100 µM in each case.
Consider `CC1(C)OC([C@H](O)CO)C([C@H]2NCCS2)O1` (some centres not stated), for which the TGI in assay [1], in assay [2], in [3], in assay [10], in assay [4] and in assay [5] was over 100 µM in each case. The TGI in assay [7], in assay [8] and in assay [9] was over 100 µM throughout.
Take `CCC(/C=C/c1ccccc1)=N\N=C(\C=C\c1ccccc1)CC`: the TGI in [1], in [3], in assay [10], in assay [5], in [6] and in assay [8] was over 100 µM in each case. Further, in [9], the TGI was over 100 µM.
For the molecule `CC(=O)O[C@H]1C(=O)[C@@]2(C)[C@H]([C@H](OC(=O)c3ccncc3)[C@]3(O)C[C@H](OC(=O)[C@H](O)[C@@H](NC(=O)c4ccccc4)c4ccccc4)C(C)=C1C3(C)C)[C@]1(OC(C)=O)CO[C@@H]1C[C@@H]2O`, the TGI in [1] was over 25 µM; in assay [3] it was over 22 µM; in assay [10], over 25 µM; in assay [4], over 25 µM; in assay [5] it was over 18.1 µM; in [11], 2.1 µM. Besides, the TGI in assay [6] is over 25 µM; in assay [7], over 23.3 µM; in assay [8] it was 11 µM; in assay [9] it was over 25 µM.
`Clc1ccc(N=Cc2cc3cc(Br)ccc3nc2Cl)cc1`: the TGI in assay [2] is over 50 µM; in assay [3] it was 45.2 µM; in assay [10], over 50 µM; in [5], over 50 µM; in assay [11], over 50 µM; in assay [6], over 50 µM. Besides, the TGI in assay [7] and in assay [8] was over 50 µM in each case.
As to `O=C1NCN(c2ccccc2)C12CCN(CCCSc1ccc(F)cc1)CC2`, the TGI in [1] is over 100 µM; in [2] it was 41.6 µM; in assay [3] it was 17.9 µM; in assay [10], 37.1 µM; in [4] it was 25.2 µM; in [5], over 86.1 µM. Further, the TGI was over 100 µM in [6], over 100 µM in assay [7], 67.2 µM in [8] and 97 µM in assay [9].
In the case of `C=CCn1c(=S)sc2c(=O)[nH]cnc21`, the TGI in assay [1], in assay [2], in assay [3], in assay [10], in assay [5] and in assay [6] was over 100 µM in each case. For the same molecule, the TGI in assay [8] and in [9] was over 100 µM throughout.
Regarding `O=C(Nc1ccc(F)cc1)c1cc2ccc(O)cc2oc1=Nc1cccc(F)c1`, the TGI in assay [1] was over 100 µM; in [3], 35.6 µM; in assay [10], 52.6 µM; in [11] it was over 100 µM; in assay [6], over 100 µM; in assay [8], over 100 µM. The molecule also yielded a TGI in assay [9] of over 100 µM.
Regarding `COc1ccc(C2S/C(=C\c3cccc([N+](=O)[O-])c3)C(=O)N2NC(=O)Cc2ccccc2)cc1` (configuration not stated), the TGI in [1], in [2], in [3], in assay [10], in assay [5] and in [6] was over 100 µM each time. The TGI in assay [7] and in assay [9] was over 100 µM each time.
For the molecule `COc1ccc(C2C3=C(CCCC3=O)N(c3ccccc3)C3=C2C(=O)CCC3)cc1`, the TGI was over 100 µM in [2]; over 100 µM in assay [10]; over 100 µM in assay [5]; over 100 µM in assay [6]; 78.7 µM in assay [7].
Turning to `O=C1CSc2ccncc2N1`, the TGI in assay [1], in assay [3], in assay [10], in assay [5], in assay [6] and in assay [7] was over 100 µM in each case. Also, the TGI in assay [8] and in assay [9] was over 100 µM in each case.
`CCCN1CN(C(C(=O)N[C@@H]2C(=O)N3C(C(=O)O)=C(C)CSC23)c2ccccc2)CSC1=S` (some centres not stated): the TGI in assay [1], in assay [2], in assay [3], in assay [10], in [5] and in [6] was over 100 µM each time. In addition, the values for the TGI in assay [7] and in [9] were 82.5 µM and over 100 µM, respectively.
For `Cc1ccccc1Nc1cn(CCOc2ccccc2)c(=O)n(CCOc2ccccc2)c1=O`, the TGI in assay [1], in assay [2], in [3], in [10], in assay [11] and in [6] was over 100 µM each time. Moreover, the TGI in [7], in assay [8] and in assay [9] was over 100 µM each time.
For `CN(C)N1C(=O)CC2(CCN(CCCC(=O)c3ccc(F)cc3)CC2)C1=O`, the TGI in [1], in assay [3], in assay [10], in assay [4], in [5] and in assay [11] was over 100 µM each time. Further, the TGI in assay [6], in [7] and in [9] was over 100 µM throughout.
In the case of `COc1ccc(-n2nnnc2C2(Nc3ccccc3)CCN(Cc3ccccc3)CC2)cc1`, the TGI in assay [1] came to 28.9 µM; in assay [3], 24.6 µM; in assay [10] it was 24 µM; in [4] it was 32.3 µM; in assay [5], 44.7 µM; in assay [6] it was 28 µM. In addition, the TGI in [7] was 33.8 µM; in [8] it was 14 µM; in assay [9], 56.2 µM.
Turning to `O=C(NC1CCN(Cc2ccccc2)CC1)c1ccccc1I`, the TGI was 36.9 µM in assay [1]; 92.4 µM in assay [2]; 31 µM in [3]; 32.6 µM in assay [10]; 41.1 µM in assay [4]; over 100 µM in assay [6]. In addition, the TGI was over 100 µM in [7] and 37.9 µM in assay [9].
Regarding `N#C/C(N)=C(\C#N)N=CNc1ccccc1N`, the TGI in [1], in [3], in assay [10], in assay [4], in assay [5] and in [11] was over 100 µM throughout. For the same molecule, the TGI in [6], in [8] and in assay [9] was over 100 µM each time.
In the case of `CC1(CC(=O)OC(C#C[Si](C)(C)C)Cc2ccccc2)OCCO1` (configuration not stated), the TGI in assay [1], in assay [3], in [10], in assay [4], in assay [5] and in [11] was over 100 µM throughout. Besides, the TGI in assay [6], in assay [7] and in [9] was over 100 µM each time.
As for `Nc1nc(Cl)nc2c1ncn2C1CCC(CO)O1` (configuration not stated), the TGI in assay [1], in [2], in assay [3], in assay [10], in [5] and in assay [11] was over 100 µM in each case. The TGI in [6], in [7] and in assay [9] was over 100 µM in each case.
As to `CCOC(=O)c1cc(Cl)ccc1OC(N)=O`, the TGI in [1], in assay [2], in assay [3], in assay [10], in assay [5] and in assay [6] was over 100 µM each time. The TGI in assay [7], in [8] and in assay [9] was over 100 µM throughout.
